Source: publication PMC4290489, “Identification of multiple salicylic acid-binding proteins using two high throughput screens” (Frontiers in Plant Science, 2015)

Experiments:
Type in all cases: binding
TPPII = target: T1, TPPII (Arabidopsis thaliana, UniProt F4JVN6); experiment: UV photo-crosslinking, anti-SA immunoblot; conditions: 50 uM 4AzSA, PBS, on ice, 254 nm UV; covalent; competed by SA
T1 construct: gene TPP2; N-terminal His6 (pET28a), from E. coli
T1 sequence (F4JVN6 1-1380): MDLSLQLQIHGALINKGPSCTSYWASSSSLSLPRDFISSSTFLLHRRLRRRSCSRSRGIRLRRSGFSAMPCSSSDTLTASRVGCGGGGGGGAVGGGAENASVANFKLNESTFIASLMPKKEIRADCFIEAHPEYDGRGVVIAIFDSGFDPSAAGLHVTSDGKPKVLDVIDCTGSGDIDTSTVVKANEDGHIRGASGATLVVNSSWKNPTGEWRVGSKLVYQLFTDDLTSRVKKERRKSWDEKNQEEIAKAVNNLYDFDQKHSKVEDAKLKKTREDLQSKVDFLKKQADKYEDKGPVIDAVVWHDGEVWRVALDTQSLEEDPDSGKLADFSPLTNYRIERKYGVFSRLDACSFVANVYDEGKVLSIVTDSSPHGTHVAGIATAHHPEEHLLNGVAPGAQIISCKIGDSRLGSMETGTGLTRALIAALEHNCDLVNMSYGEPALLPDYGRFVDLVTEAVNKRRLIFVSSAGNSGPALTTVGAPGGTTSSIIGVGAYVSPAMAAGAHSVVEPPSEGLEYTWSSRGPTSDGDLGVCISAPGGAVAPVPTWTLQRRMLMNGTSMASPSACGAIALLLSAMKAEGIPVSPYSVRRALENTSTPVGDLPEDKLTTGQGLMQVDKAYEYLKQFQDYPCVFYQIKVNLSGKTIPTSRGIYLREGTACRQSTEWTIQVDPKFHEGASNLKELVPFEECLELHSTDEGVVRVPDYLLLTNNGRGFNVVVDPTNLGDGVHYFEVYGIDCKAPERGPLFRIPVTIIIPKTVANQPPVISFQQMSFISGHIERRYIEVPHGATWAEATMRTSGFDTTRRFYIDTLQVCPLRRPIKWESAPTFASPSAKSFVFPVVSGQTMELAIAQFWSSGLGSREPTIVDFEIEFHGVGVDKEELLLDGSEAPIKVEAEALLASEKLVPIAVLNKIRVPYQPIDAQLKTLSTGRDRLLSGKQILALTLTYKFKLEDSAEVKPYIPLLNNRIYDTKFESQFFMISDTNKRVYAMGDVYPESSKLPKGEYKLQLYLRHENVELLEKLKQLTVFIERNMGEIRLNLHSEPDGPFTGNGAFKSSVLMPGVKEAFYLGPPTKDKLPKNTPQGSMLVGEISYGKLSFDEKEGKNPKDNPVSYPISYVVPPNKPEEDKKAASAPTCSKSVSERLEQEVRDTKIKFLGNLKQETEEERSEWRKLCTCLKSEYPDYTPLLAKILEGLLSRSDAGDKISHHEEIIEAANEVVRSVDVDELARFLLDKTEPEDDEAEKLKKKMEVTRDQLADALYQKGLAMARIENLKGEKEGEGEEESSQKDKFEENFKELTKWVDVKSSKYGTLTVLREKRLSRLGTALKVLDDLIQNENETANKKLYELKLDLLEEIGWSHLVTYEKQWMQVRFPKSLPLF

GSR2 = target: T2, GSR2 (Arabidopsis thaliana, UniProt Q8LCE1); experiment: UV photo-crosslinking, anti-SA immunoblot; conditions: 50 uM 4AzSA, PBS, on ice, 254 nm UV; covalent; competed by SA
T2 construct: gene GLN1-2; N-terminal His6 (pET28a), from E. coli
T2 sequence (Q8LCE1 1-356): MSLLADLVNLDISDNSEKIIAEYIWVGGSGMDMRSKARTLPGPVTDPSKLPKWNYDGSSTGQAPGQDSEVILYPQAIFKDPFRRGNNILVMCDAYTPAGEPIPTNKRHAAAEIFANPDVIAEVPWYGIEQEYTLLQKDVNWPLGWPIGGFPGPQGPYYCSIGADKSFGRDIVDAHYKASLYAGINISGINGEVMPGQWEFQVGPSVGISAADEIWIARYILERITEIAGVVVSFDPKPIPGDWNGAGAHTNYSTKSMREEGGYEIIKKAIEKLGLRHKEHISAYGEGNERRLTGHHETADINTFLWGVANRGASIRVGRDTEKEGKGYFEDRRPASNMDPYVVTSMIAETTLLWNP

SHM4 = target: T3, SHM4 (Arabidopsis thaliana, UniProt O23254); experiment: UV photo-crosslinking, anti-SA immunoblot; conditions: 50 uM 4AzSA, PBS, on ice, 254 nm UV; covalent; competed by SA
T3 construct: N-terminal His6 (pET28a), from E. coli
T3 sequence (O23254 1-471): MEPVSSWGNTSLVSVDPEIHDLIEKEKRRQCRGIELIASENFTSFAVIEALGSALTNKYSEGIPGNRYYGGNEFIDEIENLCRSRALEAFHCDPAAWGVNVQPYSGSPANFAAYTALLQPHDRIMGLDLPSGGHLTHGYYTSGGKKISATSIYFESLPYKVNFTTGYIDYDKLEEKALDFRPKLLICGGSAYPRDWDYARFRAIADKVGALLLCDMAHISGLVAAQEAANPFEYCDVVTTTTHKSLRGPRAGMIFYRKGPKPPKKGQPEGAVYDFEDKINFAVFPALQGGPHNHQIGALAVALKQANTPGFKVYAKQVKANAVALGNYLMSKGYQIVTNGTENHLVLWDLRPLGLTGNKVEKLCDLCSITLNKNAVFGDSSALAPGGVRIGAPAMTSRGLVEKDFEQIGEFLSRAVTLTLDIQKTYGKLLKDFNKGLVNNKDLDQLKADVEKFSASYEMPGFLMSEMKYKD

RBCS1A [1] = target: T4, RBCS1A (Arabidopsis thaliana, UniProt P10795); experiment: UV photo-crosslinking, anti-SA immunoblot; conditions: 50 uM 4AzSA, PBS, on ice, 254 nm UV; covalent; competed by SA
T4 construct: gene RBCS-1A; small subunit alone, N-terminal His6 (pET28a), from E. coli

GPX2 = target: T5, GPX2 (Arabidopsis thaliana, UniProt O04922); experiment: UV photo-crosslinking, anti-SA immunoblot; conditions: 50 uM 4AzSA, PBS, on ice, 254 nm UV; covalent; competed by SA
T5 construct: N-terminal His6 (pET28a), from E. coli
T5 sequence (O04922 1-169): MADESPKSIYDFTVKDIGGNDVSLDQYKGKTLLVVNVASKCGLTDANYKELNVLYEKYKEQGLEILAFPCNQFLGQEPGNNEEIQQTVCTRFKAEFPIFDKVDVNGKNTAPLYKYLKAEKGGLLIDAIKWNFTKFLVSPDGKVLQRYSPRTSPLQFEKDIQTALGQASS

RBCS1A [2] = target: T4, RBCS1A; experiment: SPR competition on 3AESA chip; competition of 4AzSA photo-crosslinking; conditions: 1-5 mM SA, HBS-EP pH 7.4 (SPR); competes with 3AESA and 4AzSA

SMILES | UV photo-crosslinking, anti-SA immunoblot (TPPII) | UV photo-crosslinking, anti-SA immunoblot (GSR2) | UV photo-crosslinking, anti-SA immunoblot (SHM4) | UV photo-crosslinking, anti-SA immunoblot (RBCS1A [1]) | UV photo-crosslinking, anti-SA immunoblot (GPX2) | SPR competition on 3AESA chip; competition of 4AzSA photo-crosslinking (RBCS1A [2])
[N-]=[N+]=Nc1ccc(C(=O)O)c(O)c1 [4AzSA] | These five proteins also bound and crosslinked to 4AzSA | bound 3AESA and crosslinked to 4AzSA in an SA-inhibitable manner, indicating that they are SABPs | These five proteins also bound and crosslinked to 4AzSA | bound 3AESA and crosslinked to 4AzSA in an SA-inhibitable manner, indicating that they are SABPs | bound 3AESA and crosslinked to 4AzSA in an SA-inhibitable manner, indicating that they are SABPs | 
O=C(O)c1ccccc1O [SA] |  |  |  |  |  | bound 3AESA and crosslinked to 4AzSA in an SA-inhibitable manner, indicating that they are SABPs
